The source made the active and inactive calls.
Legend:
[1] = Luminescence Cell-Based Dose Response HTS to Identify Activators of Luciferase Translation or Activity in H4 […] Cells. [Related pubchem assays: 1829 (Project Summary), 1814 (Primary HTS)]; assay type: functional
[2] = Luminescence Cell-Based Dose Confirmation HTS to Identify Activators of 5'UTR Stem-Loop Driven Alpha-Synuclein mRNA Translation in H4 Neuroglioblastoma Cells. [Related pubchem assays: 1829 (Project Summary), 1814 (Primary HTS)]; assay type: functional
[3] = target: Sphingosine 1-phosphate receptor 1 (Homo sapiens, UniProt P21453); assay: Fluorescence-based counterscreen assay for S1P4 agonists: Cell-based dose response high throughput screening assay to identify agonists of the Sphingosine 1-Phosphate Receptor 1 (S1P1). [Related pubchem assays (depositor defined):AID1509, AID1523, AID1801, AID463107, AID463118, AID463119, AID463122, AID463123, AID463129, AID463225, AID504400, AID504460]; assay type: functional
Sequence of Sphingosine 1-phosphate receptor 1 (P21453 whole entry): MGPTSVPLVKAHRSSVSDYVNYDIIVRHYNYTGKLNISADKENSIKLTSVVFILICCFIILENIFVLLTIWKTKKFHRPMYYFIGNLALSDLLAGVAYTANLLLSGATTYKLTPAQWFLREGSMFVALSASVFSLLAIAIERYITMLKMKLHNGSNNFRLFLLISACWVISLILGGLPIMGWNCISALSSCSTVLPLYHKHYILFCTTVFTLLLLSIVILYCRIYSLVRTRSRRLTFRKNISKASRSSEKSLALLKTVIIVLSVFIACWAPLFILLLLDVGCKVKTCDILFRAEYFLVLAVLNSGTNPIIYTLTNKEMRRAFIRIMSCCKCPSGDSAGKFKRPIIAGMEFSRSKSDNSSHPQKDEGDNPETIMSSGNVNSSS

[4] = target: Sphingosine 1-phosphate receptor 4 (Homo sapiens, UniProt O95977); assay: Fluorescence dose response cell-based high throughput screening assay for agonists of the Sphingosine 1-Phosphate Receptor 4 (S1P4). [Related pubchem assays: 1509 (Primary screen.), 1523 (Confirmation screen in triplicates.)]; assay type: functional
Sequence of Sphingosine 1-phosphate receptor 4 (O95977 whole entry): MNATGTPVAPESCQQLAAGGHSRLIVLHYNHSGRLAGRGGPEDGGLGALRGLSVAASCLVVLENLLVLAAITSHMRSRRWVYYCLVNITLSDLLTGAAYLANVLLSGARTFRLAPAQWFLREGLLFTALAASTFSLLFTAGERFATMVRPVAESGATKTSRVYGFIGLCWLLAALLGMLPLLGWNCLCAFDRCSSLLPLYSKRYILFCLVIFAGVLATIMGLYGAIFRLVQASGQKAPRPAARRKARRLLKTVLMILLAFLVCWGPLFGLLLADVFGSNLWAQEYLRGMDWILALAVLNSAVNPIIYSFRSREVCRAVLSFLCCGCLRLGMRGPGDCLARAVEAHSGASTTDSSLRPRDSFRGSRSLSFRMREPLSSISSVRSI

H4 = assay: Luminescence Cell-Based Dose Response HTS to Identify Activators of 5'UTR Stem-Loop Driven Prion Protein mRNA Translation in H4 Neuroglioblastoma Cells. [Related pubchem assays: 1829 (Project Summary), 1814 (Primary HTS)]; assay type: functional; conditions: Homo sapiens
[5] = target: T1, Tyrosine-protein phosphatase non-receptor type 22 (Homo sapiens, UniProt Q9Y2R2); assay type: functional
T1 sequence (Q9Y2R2 whole entry): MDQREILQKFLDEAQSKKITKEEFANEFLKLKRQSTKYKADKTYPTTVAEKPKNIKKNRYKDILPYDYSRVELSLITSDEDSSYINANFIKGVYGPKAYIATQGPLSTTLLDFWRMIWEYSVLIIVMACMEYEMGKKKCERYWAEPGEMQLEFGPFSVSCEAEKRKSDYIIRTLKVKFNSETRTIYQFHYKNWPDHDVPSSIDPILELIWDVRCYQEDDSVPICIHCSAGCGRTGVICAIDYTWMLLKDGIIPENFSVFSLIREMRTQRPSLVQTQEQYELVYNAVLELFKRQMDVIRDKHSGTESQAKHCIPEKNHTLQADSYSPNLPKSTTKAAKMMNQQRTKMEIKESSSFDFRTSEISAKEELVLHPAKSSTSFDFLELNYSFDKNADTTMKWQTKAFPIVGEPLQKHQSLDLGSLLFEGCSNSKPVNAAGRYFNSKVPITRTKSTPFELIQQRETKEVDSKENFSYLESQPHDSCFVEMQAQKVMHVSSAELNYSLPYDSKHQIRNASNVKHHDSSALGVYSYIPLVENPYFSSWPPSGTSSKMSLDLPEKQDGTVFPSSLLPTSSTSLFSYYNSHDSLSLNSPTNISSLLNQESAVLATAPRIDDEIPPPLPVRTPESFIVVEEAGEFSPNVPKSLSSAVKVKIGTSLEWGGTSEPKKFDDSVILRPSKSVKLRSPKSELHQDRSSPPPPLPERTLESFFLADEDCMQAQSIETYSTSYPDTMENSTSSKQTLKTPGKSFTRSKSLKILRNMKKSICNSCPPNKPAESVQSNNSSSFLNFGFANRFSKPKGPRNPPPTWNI

[6] = target: T2, Tyrosine-protein phosphatase non-receptor type 7 (Homo sapiens, UniProt P35236); assay type: functional
T2 sequence (P35236 whole entry): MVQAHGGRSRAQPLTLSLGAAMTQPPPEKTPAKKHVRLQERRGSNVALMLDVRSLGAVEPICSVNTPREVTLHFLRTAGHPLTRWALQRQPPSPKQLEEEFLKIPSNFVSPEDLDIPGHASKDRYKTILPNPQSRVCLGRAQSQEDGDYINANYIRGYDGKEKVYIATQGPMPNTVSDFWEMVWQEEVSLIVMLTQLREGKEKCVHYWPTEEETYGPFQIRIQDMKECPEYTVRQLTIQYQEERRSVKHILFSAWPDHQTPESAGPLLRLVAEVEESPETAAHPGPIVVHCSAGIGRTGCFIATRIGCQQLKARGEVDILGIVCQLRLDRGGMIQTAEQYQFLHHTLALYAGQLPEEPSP

[7] = target: T1, Tyrosine-protein phosphatase non-receptor type 22; assay type: functional; remark: listed apart in the source
Protein RecA [8] = target: T3, Protein RecA (Mycobacterium tuberculosis, UniProt P9WHJ3); assay: RecA Intein Measured in Biochemical System Using Plate Reader - 2047-02_Inhibitor_Dose_DryPowder_Activity. [Related pubchem assays (depositor defined):AID2223]; parameters: species or system Mycobacterium tuberculosis H37Rv
T3 sequence (P9WHJ3 whole entry): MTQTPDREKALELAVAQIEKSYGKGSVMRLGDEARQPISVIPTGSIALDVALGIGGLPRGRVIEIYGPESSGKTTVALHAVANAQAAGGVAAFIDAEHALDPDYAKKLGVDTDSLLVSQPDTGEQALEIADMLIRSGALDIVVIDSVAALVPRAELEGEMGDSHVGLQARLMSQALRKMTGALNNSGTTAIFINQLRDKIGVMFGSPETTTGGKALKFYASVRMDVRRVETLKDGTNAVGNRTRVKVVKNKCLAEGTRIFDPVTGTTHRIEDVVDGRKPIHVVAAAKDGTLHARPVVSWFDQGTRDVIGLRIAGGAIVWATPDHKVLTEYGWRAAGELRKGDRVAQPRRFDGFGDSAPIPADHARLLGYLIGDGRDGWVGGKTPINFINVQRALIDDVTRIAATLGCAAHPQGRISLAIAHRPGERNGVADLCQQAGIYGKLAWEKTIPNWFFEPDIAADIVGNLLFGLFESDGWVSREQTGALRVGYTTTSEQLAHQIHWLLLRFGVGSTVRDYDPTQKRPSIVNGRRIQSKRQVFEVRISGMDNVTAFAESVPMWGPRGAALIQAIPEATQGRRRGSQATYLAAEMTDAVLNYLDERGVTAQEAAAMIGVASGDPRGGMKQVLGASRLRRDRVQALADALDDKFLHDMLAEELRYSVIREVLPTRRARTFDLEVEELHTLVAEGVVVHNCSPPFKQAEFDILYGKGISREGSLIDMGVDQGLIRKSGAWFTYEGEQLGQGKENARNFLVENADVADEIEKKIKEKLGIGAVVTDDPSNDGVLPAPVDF

[9] = GFP fluorescence signal inhibitors, dose response, artefact control, biochemical, plate reader, dry powder (AID 493243)
[10] = target: T4, Replicative DNA helicase DnaB (Mycobacterium tuberculosis, UniProt P9WMR3); assay: DnaB intein splicing inhibitors, dose response, biochemical, cell-free fluorescence (AID 449749); assay type: functional
T4 sequence (P9WMR3 whole entry): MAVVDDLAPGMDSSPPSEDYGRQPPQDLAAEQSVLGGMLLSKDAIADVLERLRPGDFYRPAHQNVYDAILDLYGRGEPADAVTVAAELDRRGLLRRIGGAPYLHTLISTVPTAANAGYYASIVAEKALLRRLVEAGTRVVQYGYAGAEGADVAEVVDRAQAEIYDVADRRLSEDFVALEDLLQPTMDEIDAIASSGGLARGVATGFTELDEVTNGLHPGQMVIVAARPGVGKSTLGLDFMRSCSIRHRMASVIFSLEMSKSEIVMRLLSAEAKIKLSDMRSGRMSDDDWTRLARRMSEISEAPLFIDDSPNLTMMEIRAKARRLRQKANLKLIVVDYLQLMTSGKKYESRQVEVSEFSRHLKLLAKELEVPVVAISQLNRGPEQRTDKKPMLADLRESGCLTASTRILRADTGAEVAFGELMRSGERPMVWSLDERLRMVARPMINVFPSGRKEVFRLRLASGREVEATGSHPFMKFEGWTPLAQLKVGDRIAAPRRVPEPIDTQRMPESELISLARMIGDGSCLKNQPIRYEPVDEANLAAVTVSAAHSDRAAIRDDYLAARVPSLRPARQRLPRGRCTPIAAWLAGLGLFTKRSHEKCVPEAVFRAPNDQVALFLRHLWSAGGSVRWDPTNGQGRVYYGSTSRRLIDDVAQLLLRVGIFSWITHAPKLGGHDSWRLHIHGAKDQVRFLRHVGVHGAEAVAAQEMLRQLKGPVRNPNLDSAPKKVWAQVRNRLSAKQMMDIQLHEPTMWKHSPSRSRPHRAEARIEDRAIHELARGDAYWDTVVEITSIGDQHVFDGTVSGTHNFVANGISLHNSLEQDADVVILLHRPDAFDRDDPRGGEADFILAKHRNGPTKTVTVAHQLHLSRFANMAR

cells = assay type: functional
Protein RecA [11] = target: T3, Protein RecA; assay: Fluorescence Cell-Free Homogeneous Dose Retest to Identify Inhibitors of RecA-Intein Splicing Activity. [Related pubchem assays (depositor defined):AID2097, AID2223, AID489010, AID492950]; assay type: functional
[12] = target: T4, Replicative DNA helicase DnaB; assay: DnaB Intein secondary assay Measured in Biochemical System Using Plate Reader - 2047-04_Inhibitor_Dose_DryPowder_Activity. [Related pubchem assays (depositor defined):AID2223]
[13] = target: T5, Delta-type opioid receptor (Homo sapiens, UniProt P41143); assay: SAR Analysis of Agonists of the DOR Receptor using an Image-Based Assay - Set 3. [Related pubchem assays (depositor defined):AID1777, AID1786]; assay type: functional
T5 sequence (P41143 whole entry): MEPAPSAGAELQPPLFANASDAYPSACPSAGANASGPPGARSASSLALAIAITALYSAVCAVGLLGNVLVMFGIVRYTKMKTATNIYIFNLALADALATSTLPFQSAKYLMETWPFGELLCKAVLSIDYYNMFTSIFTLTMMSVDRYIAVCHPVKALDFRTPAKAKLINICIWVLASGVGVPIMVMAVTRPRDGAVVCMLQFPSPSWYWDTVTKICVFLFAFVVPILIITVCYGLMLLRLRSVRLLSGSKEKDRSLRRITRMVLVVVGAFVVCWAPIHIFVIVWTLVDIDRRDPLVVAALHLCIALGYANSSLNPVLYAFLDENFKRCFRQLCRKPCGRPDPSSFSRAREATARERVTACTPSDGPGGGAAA

Mu-type opioid receptor [14] = target: T6, Mu-type opioid receptor (Homo sapiens, UniProt P35372); assay: SAR Analysis of Agonists of the MOR Receptor using an Image-Based Assay - Set 3. [Related pubchem assays (depositor defined):AID1777, AID1785, AID1786, AID1966, AID2133, AID2136, AID2284, AID2285, AID2352]; assay type: functional
T6 sequence (P35372 whole entry): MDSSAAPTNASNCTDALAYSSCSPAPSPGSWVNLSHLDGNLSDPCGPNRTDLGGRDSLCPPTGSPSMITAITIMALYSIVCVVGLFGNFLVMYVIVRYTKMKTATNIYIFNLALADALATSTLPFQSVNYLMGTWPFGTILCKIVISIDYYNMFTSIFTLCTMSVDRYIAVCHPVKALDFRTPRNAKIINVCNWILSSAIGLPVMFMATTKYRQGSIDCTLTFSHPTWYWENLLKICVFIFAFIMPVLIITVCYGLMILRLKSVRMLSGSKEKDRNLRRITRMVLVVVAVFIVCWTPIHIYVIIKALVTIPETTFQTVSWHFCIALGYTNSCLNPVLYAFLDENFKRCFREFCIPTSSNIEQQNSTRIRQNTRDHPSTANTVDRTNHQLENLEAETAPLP

[15] = target: T7, Kappa-type opioid receptor (Homo sapiens, UniProt P41145); assay: KOR agonist analogs, arrestin-GFP redistribution, SAR follow-up, imaging, image-based, set 3 (AID 488833); assay type: functional
T7 sequence (P41145 whole entry): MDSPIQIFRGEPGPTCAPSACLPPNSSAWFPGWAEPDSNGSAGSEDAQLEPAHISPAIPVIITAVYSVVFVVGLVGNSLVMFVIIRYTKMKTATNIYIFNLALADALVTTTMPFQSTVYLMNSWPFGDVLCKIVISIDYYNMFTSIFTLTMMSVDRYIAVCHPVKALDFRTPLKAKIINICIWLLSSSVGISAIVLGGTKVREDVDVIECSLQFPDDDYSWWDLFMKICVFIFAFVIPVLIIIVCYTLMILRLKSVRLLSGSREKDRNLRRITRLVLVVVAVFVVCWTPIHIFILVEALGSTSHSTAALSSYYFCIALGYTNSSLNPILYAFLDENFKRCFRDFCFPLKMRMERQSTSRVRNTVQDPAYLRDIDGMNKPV

[16] = target: T7, Kappa-type opioid receptor; assay: SAR analysis of small molecule agonists of the kappa opioid receptor via a luminescent beta-arrestin assay - Set 3. [Related pubchem assays (depositor defined):AID1777, AID1785, AID1786, AID1966, AID2133, AID2136, AID2284, AID2500]; assay type: functional
Mu-type opioid receptor [17] = target: T6, Mu-type opioid receptor; assay: HTS Image-Based Screen for Agonists of the MOR Receptor. [Related pubchem assays (depositor defined):AID1777, AID1785, AID1786, AID2133]; assay type: functional
[18] = target: T7, Kappa-type opioid receptor; assay type: functional
Vero [19] = assay: cells; assay type: functional; conditions: Chlorocebus sabaeus
[20] = target: T5, Delta-type opioid receptor; assay: HTS Image-Based Screen for Agonists of the DOR Receptor. [Related pubchem assays (depositor defined):AID1777, AID1786, AID2133]; assay type: functional
Vero [21] = assay: cells; assay type: functional, cell-based; conditions: Chlorocebus sabaeus
Beta-galactosidase = Beta-galactosidase (Escherichia coli, UniProt Q8VNN2); assay type: functional
Sequence of Beta-galactosidase (Q8VNN2 whole entry): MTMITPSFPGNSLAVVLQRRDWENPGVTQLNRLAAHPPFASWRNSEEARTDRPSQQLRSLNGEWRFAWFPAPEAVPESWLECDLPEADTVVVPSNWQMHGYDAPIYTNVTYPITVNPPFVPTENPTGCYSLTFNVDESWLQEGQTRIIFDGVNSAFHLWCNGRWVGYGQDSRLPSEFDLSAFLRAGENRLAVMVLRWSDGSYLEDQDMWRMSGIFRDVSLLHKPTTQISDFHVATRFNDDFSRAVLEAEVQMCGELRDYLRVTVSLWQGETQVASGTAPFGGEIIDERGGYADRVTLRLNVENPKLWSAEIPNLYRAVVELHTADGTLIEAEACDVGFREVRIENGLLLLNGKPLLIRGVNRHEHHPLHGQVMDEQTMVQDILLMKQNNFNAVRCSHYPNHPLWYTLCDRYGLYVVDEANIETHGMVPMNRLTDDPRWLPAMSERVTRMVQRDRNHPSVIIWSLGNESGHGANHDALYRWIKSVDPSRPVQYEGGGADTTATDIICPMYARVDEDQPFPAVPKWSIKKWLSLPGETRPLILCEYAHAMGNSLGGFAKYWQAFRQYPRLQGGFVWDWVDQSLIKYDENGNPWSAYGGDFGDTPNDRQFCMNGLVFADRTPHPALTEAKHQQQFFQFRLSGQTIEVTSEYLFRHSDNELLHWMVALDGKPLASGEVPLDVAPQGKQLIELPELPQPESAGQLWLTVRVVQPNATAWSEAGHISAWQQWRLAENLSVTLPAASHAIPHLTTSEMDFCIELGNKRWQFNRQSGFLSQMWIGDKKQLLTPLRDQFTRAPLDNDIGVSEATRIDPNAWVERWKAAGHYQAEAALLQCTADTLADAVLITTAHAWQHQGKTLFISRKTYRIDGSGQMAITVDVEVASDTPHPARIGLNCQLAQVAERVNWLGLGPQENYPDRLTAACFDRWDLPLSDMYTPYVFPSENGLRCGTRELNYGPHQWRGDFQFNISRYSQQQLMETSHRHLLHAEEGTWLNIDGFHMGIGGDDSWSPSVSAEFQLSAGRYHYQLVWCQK

[22] = target: T7, Kappa-type opioid receptor; assay type: functional; remark: listed apart in the source
[23] = target: T5, Delta-type opioid receptor; assay: HTS Image-Based Screen for Antagonists of the DOR Receptor. [Related pubchem assays (depositor defined):AID1777, AID1785, AID1786, AID2133]; assay type: functional
[24] = target: T8, Rac GTPase-activating protein 1 (Homo sapiens, UniProt Q9H0H5); assay: MgcRacGAP GTPase-activating activity inhibitors, confirmation, biochemical, ADP Hunter fluorescence, primary and confirmatory (AID 624330); assay type: functional
T8 sequence (Q9H0H5 whole entry): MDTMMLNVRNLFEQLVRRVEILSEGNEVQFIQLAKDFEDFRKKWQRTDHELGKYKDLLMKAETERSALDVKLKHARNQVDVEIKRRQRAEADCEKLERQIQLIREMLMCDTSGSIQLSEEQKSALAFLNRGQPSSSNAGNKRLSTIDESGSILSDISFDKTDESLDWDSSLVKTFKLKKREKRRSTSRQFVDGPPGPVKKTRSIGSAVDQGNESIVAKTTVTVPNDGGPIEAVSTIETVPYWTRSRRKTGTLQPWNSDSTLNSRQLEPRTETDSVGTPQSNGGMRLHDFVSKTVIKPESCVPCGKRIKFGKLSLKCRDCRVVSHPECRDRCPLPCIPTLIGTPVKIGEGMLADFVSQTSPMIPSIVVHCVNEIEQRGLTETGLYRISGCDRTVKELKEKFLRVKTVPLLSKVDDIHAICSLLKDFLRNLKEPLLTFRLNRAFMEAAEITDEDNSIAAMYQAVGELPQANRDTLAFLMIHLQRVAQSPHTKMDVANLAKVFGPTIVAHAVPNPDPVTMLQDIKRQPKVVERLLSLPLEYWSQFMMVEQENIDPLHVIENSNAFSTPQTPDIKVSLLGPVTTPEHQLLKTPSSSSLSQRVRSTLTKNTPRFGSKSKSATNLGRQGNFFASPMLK

CC(=O)Oc1ccc2cc(-c3nc4ccccc4n3C)c(=O)oc2c1
active: EC50 [1] 53.2 µM | EC50 [2] 94.4 µM | EC50 (H4) 4.66 µM
inactive: EC50 [3] > 49.8 µM
191 µM (not active): EC50 [4]

COc1ccc(C2SCC(=O)N2CCCN(C)C)cc1 (configuration not stated)
inactive: IC50 [5] > 79.4 µM | IC50 [6] > 79.4 µM | IC50 [7] > 79.4 µM

C/C(=N\NC(=O)c1ccncc1)c1cc2ccccc2oc1=O
active: AC50 (Protein RecA [8]) 3.08 µM | AC50 [9] 218 µM | AC50 [10] 2.77 µM | IC50 (cells) 0.55 µM | EC50 (Protein RecA [11]) 2.86 µM | AC50 [12] 36.9 µM

CC(=O)Oc1ccc(CSc2nnc(-c3ccccn3)n2Cc2cccs2)cc1
inactive: EC50 [13] > 32 µM | EC50 (Mu-type opioid receptor [14]) > 32 µM | EC50 [15] > 32 µM | EC50 [16] > 20 µM

COc1cc(/C=C/c2ccc3cccc(O)c3n2)ccc1O
active: IC50 [18] 11.9 µM | CC50 (Vero [19]) 12.4 µM | IC50 (Vero [21]) > 25 µM | IC50 [24] 72.4 µM
inactive: EC50 (Mu-type opioid receptor [17]) > 32 µM | EC50 [20] > 32 µM | EC50 (Beta-galactosidase) > 31.5 µM | IC50 [23] > 32 µM
> 32 µM: IC50 [22]

Source: ChEMBL document CHEMBL1201862, “PubChem BioAssay data set” (2004)
